We go through 1 compound from paper PMC5522267, “Targeting PEPT1: a novel strategy to improve the antitumor efficacy of doxorubicin in human hepatocellular carcinoma therapy” (Oncotarget, 2017).

Structures can show the parent of a compound that is named as a salt.

For this assay, the target named is T1, PEPT1 (Homo sapiens, UniProt P46059).
T1 construct: endogenous in cells; host or cells: Bel-7402, HepG2 (human HCC cells); Caco-2
T1 sequence (P46059 1-708): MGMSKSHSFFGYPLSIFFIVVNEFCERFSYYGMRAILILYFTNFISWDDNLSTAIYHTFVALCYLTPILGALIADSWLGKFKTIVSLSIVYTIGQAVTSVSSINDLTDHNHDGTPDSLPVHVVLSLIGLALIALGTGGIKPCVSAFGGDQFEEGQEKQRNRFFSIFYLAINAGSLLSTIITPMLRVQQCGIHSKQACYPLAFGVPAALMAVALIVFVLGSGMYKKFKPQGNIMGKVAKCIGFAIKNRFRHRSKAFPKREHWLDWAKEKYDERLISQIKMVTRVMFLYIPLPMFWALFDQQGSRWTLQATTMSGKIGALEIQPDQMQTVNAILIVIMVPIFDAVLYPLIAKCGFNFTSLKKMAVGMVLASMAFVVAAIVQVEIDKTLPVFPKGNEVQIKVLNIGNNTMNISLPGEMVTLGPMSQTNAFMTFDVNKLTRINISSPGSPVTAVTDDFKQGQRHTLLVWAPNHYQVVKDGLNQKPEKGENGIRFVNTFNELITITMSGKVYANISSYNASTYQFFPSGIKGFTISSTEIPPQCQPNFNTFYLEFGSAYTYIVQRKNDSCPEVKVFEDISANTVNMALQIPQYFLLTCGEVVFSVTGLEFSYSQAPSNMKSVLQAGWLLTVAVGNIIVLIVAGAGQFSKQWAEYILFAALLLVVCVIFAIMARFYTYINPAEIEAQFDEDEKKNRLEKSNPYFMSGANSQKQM
In words: Uptake, dynamic and competitive inhibition test. It counts as cell-based. To be noted: inhibitors 0.01 mg/ml preincubated 30 mins, then drug 1 h. The procedure: The transport of Doxorubicin-tripeptide conjugate by PEPT1 was evaluated by time course, dynamic and competitive inhibition tests. The uptake study was performed on the confluent cell monolayer as described previously.
The uptake buffer was HBSS buffer (0.952 mM CaCl2, 5.36 mM KCl, 0.441 mM KH2PO4, 0.812 mM MgSO4, 136.7 mM NaCl, 0.385 mM Na2HPO4, 25 mM D-glucose, and 10 mM HEPES) adjusted to pH 6.0. […] Then four different initial concentrations (0.025 mg/ml, 0.05 mg/ml, 0.10 mg/ml, 0.15 mg/ml) of Doxorubicin-tripeptide conjugate were incubated with HCC cell monolayer at pH 6.0 for 120 min. At last, 0.05 mg/ml Doxorubicin-tripeptide conjugate was fed to HCC cells at different pH uptake buffer (5.4, 6, 7.4 and 8.4) for 120 min. Inhibition tests were conducted by preincubating the cells with competitive compounds Gly-Sar, Gly-Gln, Gly-Gly-Gly (0.01 mg/ml) respectively for 30 mins and then incubated with Doxorubicin-tripeptide conjugate (0.05 mg/ml) for 1 h. After removing the buffer and rapidly washing 3 times with ice-cold PBS, the cellular uptake was specifically examined with a Multi-Mode Reader (BioTek, Synergy 2, USA) with Excitation 485/20 and Emission 590/35.

With `COc1cccc2c1C(=O)c1c(O)c3c(c(O)c1C2=O)C[C@@](O)(C(=O)CO)C[C@@H]3O[C@H]1C[C@H](N)[C@H](O)[C@H](C)O1` [Doxorubicin, Doxorubicin hydrochloride], the “uptake in presence of inhibitors Gly-Sar, Gly-Gln or Gly-Gly-Gly” value is “not”.
